Reference: patent US9623009B2, “Veliparib in combination with carboplatin and paclitaxel for the treatment of non-small cell lung cancer in smokers” (AbbVie Inc., priority 2014, dated 2017)

What was measured:
[1] = Pharmacokinetic parameters in cotinine high versus cotinine low patients of the Phase 2 study
Experimental: (§1) A Phase 2, randomized, double-blind, multi-center study was conducted evaluating the efficacy, safety, and tolerability of veliparib in combination with carboplatin and paclitaxel versus placebo in combination with carboplatin and paclitaxel in subjects with documented metastatic or advanced non-small cell lung cancer (NSCLC) as first-line chemotherapy. Patients were randomized in a 2:1 ratio to either veliparib+carboplatin/paclitaxel or placebo+carboplatin/paclitaxel. Patient randomization was stratified by histology (squamous cell versus non-squamous cell), and smoking history (current smoker versus never smoked versus past smoker). Screening procedures and baseline radiographic tumor assessments were performed within 21 days prior to the first day veliparib/placebo was administered. Radiographic tumor assessments were conducted every 6 weeks and were sent to a central imaging center for review. Dosing of oral veliparib/placebo (120 mg) began 2 days prior to the start of the carboplatin/paclitaxel and was given twice a day (BID) for 7 days. […] All subjects were to remain on study until reaching a protocol defined event of disease progression. Patients who completed 6 cycles of treatment remained on study/off study drugs until reaching an event of disease progression. Chemotherapy or biological therapy (maintenance therapy) was not allowed until disease progression. Patients who experienced toxicities due to carboplatin/paclitaxel or veliparib may have been given a delay in the dosing schedule or a dose modification.
Pharmacokinetic parameters were evaluated for patients with chemical evidence of recent smoking (cotinine high^b, >10 ng/mL) compared with those without evidence of recent smoking (cotinine low, ≦10 ng/mL).

[2] = tested on: metastatic or advanced non-small cell lung cancer (NSCLC); test: Phase 2 randomized double-blind study: PFS and OS with veliparib + carboplatin/paclitaxel versus placebo + carboplatin/paclitaxel; type: in vivo, human
Experimental: as §1

[3] = patients without chemical evidence of smoking

Structure (SMILES) | differences in levels between cotinine high and cotinine low patients ([1]; cotinine high >10 ng/mL vs cotinine low ≦10 ng/mL) | HR for OS ([2]; light smokers (<39 pack-years)) | HR for PFS ([2]; light smokers (<39 pack-years)) | HR for OS [2, 3] | HR for PFS [2, 3] | Tmax, Mean ± SD (% CV) ([1]; human, in vivo, po) | Tmax ([1]; human, in vivo, po, Tmax, Mean ± SD (% CV))
N.N.O=C([O-])C1(C(=O)[O-])CCC1.[Pt+2] [carboplatin] | no clear differences |  |  |  |  |  | 
C[C@]1(c2nc3c(C(N)=O)cccc3[nH]2)CCCN1 [Veliparib, 2-[(2R)-2-methylpyrrolidin-2-yl]-1H-benzimidazole-4-carboxamide] |  | 0.808 | 0.971 | 0.921 | 0.966 | 1.05 ± 0.82 (78.3) hr | 1.34 h
